From ChEMBL document CHEMBL4196228, “Potential Treatment of Acute Leukemia with Inhibitors of Menin/MLL Interaction” (ACS Med Chem Lett, 2018)

What was measured:
MV4-11 = experiment: Antiproliferative activity against human MV411 cell spheroids; format: functional, cell-based
[1] = target: T1, Menin/Histone-lysine N-methyltransferase MLL (Homo sapiens, UniProt O00255); experiment: Inhibition of menin-MLL1 (unknown origin) protein-protein interaction by fluorescence polarization assay
MOLM-14 = experiment: Antiproliferative activity against human MOLM14 cell spheroids; format: functional, cell-based
[2] = target: T1, Menin/Histone-lysine N-methyltransferase MLL; experiment: Inhibition of menin-MLL1 (unknown origin) protein-protein interaction by HTRF assay

T1 sequence (O00255 whole entry): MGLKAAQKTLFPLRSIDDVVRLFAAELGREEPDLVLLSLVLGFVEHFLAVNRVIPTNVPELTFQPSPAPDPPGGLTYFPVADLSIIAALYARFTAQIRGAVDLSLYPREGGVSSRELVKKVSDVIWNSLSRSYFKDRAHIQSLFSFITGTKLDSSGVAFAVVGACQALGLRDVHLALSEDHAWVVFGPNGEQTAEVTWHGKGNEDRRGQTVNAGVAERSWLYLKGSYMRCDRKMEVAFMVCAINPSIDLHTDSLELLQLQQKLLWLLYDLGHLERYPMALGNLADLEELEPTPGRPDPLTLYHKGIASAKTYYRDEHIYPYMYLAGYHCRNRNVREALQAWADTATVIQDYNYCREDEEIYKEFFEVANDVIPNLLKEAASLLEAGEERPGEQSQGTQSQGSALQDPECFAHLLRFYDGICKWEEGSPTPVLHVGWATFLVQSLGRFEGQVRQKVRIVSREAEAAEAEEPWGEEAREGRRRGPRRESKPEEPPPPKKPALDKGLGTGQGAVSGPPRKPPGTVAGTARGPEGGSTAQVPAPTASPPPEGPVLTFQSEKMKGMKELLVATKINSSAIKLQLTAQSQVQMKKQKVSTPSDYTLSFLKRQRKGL
T1 sequence (Q03164 1-2718 partner limits assumed): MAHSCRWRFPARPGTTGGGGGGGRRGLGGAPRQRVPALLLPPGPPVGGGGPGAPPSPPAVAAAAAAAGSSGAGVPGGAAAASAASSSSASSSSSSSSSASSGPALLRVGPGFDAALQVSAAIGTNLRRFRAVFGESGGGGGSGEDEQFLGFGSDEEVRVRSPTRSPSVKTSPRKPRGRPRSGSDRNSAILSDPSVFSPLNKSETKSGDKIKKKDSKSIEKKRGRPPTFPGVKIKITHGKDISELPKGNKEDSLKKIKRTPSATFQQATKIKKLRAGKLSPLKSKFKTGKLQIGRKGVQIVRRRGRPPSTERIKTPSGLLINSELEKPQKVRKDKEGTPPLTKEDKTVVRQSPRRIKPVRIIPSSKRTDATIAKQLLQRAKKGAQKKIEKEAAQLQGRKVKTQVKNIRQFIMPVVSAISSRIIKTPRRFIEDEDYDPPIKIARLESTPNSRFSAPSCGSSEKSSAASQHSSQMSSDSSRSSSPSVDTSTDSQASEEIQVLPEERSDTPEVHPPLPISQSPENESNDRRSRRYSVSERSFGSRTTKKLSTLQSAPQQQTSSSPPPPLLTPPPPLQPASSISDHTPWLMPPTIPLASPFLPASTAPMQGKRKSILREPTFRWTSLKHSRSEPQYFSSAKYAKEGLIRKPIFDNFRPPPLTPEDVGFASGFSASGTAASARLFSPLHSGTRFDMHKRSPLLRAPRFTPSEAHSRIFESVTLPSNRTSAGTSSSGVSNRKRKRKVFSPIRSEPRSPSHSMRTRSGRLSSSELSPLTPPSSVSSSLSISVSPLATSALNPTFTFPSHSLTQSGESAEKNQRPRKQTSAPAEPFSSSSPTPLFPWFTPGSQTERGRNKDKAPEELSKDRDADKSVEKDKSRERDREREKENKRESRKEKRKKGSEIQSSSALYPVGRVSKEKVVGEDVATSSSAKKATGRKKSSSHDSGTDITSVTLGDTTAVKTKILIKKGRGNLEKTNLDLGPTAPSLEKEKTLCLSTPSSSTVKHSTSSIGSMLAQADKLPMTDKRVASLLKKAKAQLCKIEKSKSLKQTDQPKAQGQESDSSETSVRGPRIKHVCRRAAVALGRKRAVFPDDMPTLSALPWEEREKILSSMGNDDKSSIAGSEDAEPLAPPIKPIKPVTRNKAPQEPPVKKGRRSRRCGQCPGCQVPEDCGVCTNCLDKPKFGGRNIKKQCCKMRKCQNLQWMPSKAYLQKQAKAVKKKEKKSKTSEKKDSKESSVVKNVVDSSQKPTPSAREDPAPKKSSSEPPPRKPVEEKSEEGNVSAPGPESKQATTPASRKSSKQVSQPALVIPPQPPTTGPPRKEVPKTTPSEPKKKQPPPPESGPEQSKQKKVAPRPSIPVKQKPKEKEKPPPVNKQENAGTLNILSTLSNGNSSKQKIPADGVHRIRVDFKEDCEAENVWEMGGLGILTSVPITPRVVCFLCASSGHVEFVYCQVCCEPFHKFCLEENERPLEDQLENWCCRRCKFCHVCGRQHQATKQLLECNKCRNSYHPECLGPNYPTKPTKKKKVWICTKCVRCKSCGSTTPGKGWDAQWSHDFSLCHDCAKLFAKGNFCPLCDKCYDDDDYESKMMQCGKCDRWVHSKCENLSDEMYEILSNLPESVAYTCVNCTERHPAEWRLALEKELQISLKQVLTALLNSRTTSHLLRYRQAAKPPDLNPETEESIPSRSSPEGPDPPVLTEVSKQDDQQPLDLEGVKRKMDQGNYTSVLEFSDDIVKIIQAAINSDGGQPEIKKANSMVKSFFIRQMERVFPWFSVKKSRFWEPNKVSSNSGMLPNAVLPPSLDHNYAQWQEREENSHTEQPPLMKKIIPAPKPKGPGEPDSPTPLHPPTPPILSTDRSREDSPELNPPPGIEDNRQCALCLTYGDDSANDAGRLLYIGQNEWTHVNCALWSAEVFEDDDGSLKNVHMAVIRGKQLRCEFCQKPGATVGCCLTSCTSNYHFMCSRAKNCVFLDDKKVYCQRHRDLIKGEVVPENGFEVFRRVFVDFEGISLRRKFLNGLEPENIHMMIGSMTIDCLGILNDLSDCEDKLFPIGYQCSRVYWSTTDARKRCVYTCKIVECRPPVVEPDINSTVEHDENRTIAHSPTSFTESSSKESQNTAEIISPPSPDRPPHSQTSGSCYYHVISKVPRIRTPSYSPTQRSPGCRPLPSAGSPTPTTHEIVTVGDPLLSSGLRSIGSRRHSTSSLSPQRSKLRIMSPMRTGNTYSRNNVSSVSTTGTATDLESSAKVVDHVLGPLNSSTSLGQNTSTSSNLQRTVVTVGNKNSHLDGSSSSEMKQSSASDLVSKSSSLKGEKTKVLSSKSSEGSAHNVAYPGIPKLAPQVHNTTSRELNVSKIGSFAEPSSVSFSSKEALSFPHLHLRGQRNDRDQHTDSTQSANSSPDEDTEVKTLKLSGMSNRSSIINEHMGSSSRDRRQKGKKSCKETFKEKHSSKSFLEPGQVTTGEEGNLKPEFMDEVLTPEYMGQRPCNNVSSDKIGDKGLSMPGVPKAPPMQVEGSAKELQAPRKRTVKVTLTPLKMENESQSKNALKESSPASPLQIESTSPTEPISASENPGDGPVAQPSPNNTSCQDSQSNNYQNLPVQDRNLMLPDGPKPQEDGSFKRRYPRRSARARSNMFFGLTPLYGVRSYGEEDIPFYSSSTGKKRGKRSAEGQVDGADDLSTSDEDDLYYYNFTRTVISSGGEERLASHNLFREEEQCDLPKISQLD
T1 sequence (Q03164 2719-3969 partner limits assumed): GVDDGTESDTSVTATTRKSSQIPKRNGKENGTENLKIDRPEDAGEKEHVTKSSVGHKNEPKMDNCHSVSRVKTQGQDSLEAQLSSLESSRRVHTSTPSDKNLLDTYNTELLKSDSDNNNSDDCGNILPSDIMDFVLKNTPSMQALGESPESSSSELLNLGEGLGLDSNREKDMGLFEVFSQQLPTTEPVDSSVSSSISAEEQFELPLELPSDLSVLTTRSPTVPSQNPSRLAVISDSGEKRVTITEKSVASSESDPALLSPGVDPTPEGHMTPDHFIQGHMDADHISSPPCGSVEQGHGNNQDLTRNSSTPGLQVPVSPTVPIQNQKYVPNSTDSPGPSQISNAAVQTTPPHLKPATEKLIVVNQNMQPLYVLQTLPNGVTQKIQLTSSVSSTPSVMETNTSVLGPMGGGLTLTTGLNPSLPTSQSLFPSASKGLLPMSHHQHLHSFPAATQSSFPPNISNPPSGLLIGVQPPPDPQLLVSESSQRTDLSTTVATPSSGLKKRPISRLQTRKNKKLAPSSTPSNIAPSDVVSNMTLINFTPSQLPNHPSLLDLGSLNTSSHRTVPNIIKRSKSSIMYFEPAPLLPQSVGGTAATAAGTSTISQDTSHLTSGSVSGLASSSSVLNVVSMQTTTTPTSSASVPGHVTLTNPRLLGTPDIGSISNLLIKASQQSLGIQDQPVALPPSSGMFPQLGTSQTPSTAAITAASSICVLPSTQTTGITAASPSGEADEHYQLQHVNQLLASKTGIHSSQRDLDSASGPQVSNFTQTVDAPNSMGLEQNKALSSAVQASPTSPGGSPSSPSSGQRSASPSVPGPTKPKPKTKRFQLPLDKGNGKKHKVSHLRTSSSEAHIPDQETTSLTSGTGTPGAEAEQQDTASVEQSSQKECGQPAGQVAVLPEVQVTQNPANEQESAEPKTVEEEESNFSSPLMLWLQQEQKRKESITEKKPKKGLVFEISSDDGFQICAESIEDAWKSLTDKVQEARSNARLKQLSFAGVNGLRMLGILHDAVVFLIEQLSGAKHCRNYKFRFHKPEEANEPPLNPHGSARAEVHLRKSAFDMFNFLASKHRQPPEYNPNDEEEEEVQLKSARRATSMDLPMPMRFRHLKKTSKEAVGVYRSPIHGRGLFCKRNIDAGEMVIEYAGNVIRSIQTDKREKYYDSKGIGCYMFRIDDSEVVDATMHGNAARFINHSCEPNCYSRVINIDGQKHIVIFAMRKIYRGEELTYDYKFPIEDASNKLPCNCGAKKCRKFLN

SMILES | IC50 (MV4-11) [nM] | IC50 [1] [nM] | IC50 (MOLM-14) [nM] | IC50 [2] [nM]
FC(F)(F)Cc1cc2c(N3CCC4(CN(Cc5ccccc5)C4)C3)ncnc2s1 | 3700 | 56 | 4600 | 144
CC(C)[C@H](C1CNC1)N1CC2(CCN(c3ncnc4sc(CC(F)(F)F)cc34)C2)C1 | 80 | 21 | 860 | 8
Cn1cc2c(n1)CCCC2N1CC2(CCN(c3ncnc4sc(CC(F)(F)F)cc34)C2)C1 (centres undefined) | 2100 | 120 | > 15000 | 385
O=C([C@@H]1CC2(CC2)CN1)N1CC2(CCN(c3ncnc4sc(CC(F)(F)F)cc34)C2)C1 | 2600 | 92 | 11300 | 102
FC(F)(F)Cc1cc2c(N3CCCC4(CCN(Cc5ccccc5)C4)C3)ncnc2s1 (centres undefined) | 3900 | 140 | 7700 | 227
CC(C)[C@@H](C1CNC1)N1CC2(CCN(c3ncnc4sc(CC(F)(F)F)cc34)C2)C1 | 3400 | 110 | 10300 | 190
